# Reference: patent publication US20250171438A1 (Agios Pharmaceuticals, Inc., priority 2022, published 2025)
# Molecular target: T1, human PAH with the R408W mutation (Homo sapiens, UniProt P00439, R408W)
# T1 construct: expressed in transfected cells
# T1 sequence (P00439 1-452 R408W): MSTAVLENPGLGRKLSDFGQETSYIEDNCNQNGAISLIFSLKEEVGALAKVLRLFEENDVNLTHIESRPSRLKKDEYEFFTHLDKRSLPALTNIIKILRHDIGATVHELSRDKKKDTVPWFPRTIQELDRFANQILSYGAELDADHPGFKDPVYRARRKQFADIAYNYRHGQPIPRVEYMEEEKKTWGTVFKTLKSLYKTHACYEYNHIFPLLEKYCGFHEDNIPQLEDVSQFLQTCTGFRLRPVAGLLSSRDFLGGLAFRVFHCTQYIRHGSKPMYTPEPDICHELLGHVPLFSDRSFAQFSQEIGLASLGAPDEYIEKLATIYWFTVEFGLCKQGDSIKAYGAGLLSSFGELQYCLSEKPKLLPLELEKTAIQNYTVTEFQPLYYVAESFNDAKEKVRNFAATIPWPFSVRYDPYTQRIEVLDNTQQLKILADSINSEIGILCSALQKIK
# Assay: Cell Based Phenylalanine Flux Assay
# Conditions: A375 cells expressing human R408W PAH; 24 hrs compound incubation; 13C-Tyrosine by LC-MS; average where tested multiple times; read-out: AC50
row,SMILES,AC50 [nM]
1,"Cc1nc([C@H](C)O)oc1C(=O)N1CCc2[nH]cnc2[C@@H]1c1nc2c(F)cccc2s1 [Example 1912, ((R)-4-(4-fluorobenzo[d]thiazol-2-yl)-6,7-dihydro-1H-imidazo[4,5-c]pyridin-5(4H)-yl)(2-((S)-1-hydroxyethyl)-4-methyloxazol-5-yl)methanone]",> 5000
2,"Cc1nc(C2(O)CCC2)oc1C(=O)N1CCc2[nH]cnc2[C@H]1c1nc2c(F)cccc2s1 [Example 1913, (S)-(4-(4-fluorobenzo[d]thiazol-2-yl)-6,7-dihydro-1H-imidazo[4,5-c]pyridin-5(4H)-yl)(2-(1-hydroxycyclobutyl)-4-methyloxazol-5-yl)methanone]",500 to 1000
3,"Cc1nc(C2(O)CCC2)oc1C(=O)N1CCc2[nH]cnc2[C@@H]1c1nc2c(F)cccc2s1 [Example 1914, (R)-(4-(4-fluorobenzo[d]thiazol-2-yl)-6,7-dihydro-1H-imidazo[4,5-c]pyridin-5(4H)-yl)(2-(1-hydroxycyclobutyl)-4-methyloxazol-5-yl)methanone]",1000 to 5000
4,"COC(C)(C)c1nc(C)c(C(=O)N2CCc3[nH]cnc3[C@@H]2c2nc3c(F)cccc3s2)o1 [Example 1915, (R)-(4-(4-fluorobenzo[d]thiazol-2-yl)-6,7-dihydro-1H-imidazo[4,5-c]pyridin-5(4H)-yl)(2-(2-methoxypropan-2-yl)-4-methyloxazol-5-yl)methanone]",> 5000
5,"COC(C)(C)c1nc(C)c(C(=O)N2CCc3[nH]cnc3[C@H]2c2nc3c(F)cccc3s2)o1 [Example 1916, (S)-(4-(4-fluorobenzo[d]thiazol-2-yl)-6,7-dihydro-1H-imidazo[4,5-c]pyridin-5(4H)-yl)(2-(2-methoxypropan-2-yl)-4-methyloxazol-5-yl)methanone]",1000 to 5000
6,"Cn1nc(CF)cc1C(=O)N1CCc2[nH]cnc2[C@H]1c1nc2c(F)cccc2s1 [Example 1917, (S)-(4-(4-fluorobenzo[d]thiazol-2-yl)-6,7-dihydro-1H-imidazo[4,5-c]pyridin-5(4H)-yl)(3-(fluoromethyl)-1-methyl-1H-pyrazol-5-yl)methanone]",500 to 1000
7,"Cn1nc(CF)cc1C(=O)N1CCc2[nH]cnc2[C@@H]1c1nc2c(F)cccc2s1 [Example 1918, (R)-(4-(4-fluorobenzo[d]thiazol-2-yl)-6,7-dihydro-1H-imidazo[4,5-c]pyridin-5(4H)-yl)(3-(fluoromethyl)-1-methyl-1H-pyrazol-5-yl)methanone]",1000 to 5000
8,"Cc1c(C(=O)N2CCc3[nH]cnc3[C@H]2c2nc3c(F)cccc3s2)cnn1CC(F)(F)F [Example 1919, (S)-(4-(4-fluorobenzo[d]thiazol-2-yl)-6,7-dihydro-1H-imidazo[4,5-c]pyridin-5(4H)-yl)(5-methyl-1-(2,2,2-trifluoroethyl)-1H-pyrazol-4-yl)methanone]",500 to 1000
9,"Cc1c(C(=O)N2CCc3[nH]cnc3[C@@H]2c2nc3c(F)cccc3s2)cnn1CC(F)(F)F [Example 1920, (R)-(4-(4-fluorobenzo[d]thiazol-2-yl)-6,7-dihydro-1H-imidazo[4,5-c]pyridin-5(4H)-yl)(5-methyl-1-(2,2,2-trifluoroethyl)-1H-pyrazol-4-yl)methanone]",> 5000
10,O=C(c1nnc(-c2cn[nH]c2)o1)N1CCc2[nH]cnc2[C@H]1c1nc2ccccc2s1 [Example 1921],500 to 1000
11,"O=C(c1nnc(-c2cn[nH]c2)o1)N1CCc2[nH]cnc2[C@@H]1c1nc2ccccc2s1 [Example 1922, (R)-(5-(1H-pyrazol-4-yl)-1,3,4-oxadiazol-2-yl)(4-(benzo[d]thiazol-2-yl)-6,7-dihydro-1H-imidazo[4,5-c]pyridin-5(4H)-yl)methanone]",1000 to 5000
12,Cn1nc(Cl)cc1C(=O)N1CCc2[nH]cnc2[C@H]1c1nc2ccccc2s1 [Example 1923],< 500
13,"Cn1nc(Cl)cc1C(=O)N1CCc2[nH]cnc2[C@@H]1c1nc2ccccc2s1 [Example 1924, (R)-(4-(benzo[d]thiazol-2-yl)-6,7-dihydro-1H-imidazo[4,5-c]pyridin-5(4H)-yl)(3-chloro-1-methyl-1H-pyrazol-5-yl)methanone]",1000 to 5000
14,Cc1nn(C)cc1-c1nnc(C(=O)N2CCc3[nH]cnc3[C@H]2c2nc3ccccc3s2)o1 [Example 1925],< 500

# Continued, values first:
row,AC50 [nM],SMILES
1,1000 to 5000,"Cc1nn(C)cc1-c1nnc(C(=O)N2CCc3[nH]cnc3[C@@H]2c2nc3ccccc3s2)o1 [Example 1926, (R)-(4-(benzo[d]thiazol-2-yl)-6,7-dihydro-1H-imidazo[4,5-c]pyridin-5(4H)-yl)(5-(1,3-dimethyl-1H-pyrazol-4-yl)-1,3,4-oxadiazol-2-yl)methanone]"
2,< 500,"Cn1cc(-c2nnc(C(=O)N3CCc4[nH]cnc4[C@H]3c3nc4c(F)cccc4s3)o2)c(C(F)(F)F)n1 [Example 1927, (S)-(4-(4-fluorobenzo[d]thiazol-2-yl)-6,7-dihydro-1H-imidazo[4,5-c]pyridin-5(4H)-yl)(5-(1-methyl-3-(trifluoromethyl)-1H-pyrazol-4-yl)-1,3,4-oxadiazol-2-yl)methanone]"
3,1000 to 5000,"Cn1cc(-c2nnc(C(=O)N3CCc4[nH]cnc4[C@@H]3c3nc4c(F)cccc4s3)o2)c(C(F)(F)F)n1 [Example 1928, (R)-(4-(4-fluorobenzo[d]thiazol-2-yl)-6,7-dihydro-1H-imidazo[4,5-c]pyridin-5(4H)-yl)(5-(1-methyl-3-(trifluoromethyl)-1H-pyrazol-4-yl)-1,3,4-oxadiazol-2-yl)methanone]"
4,500 to 1000,"Cc1nc([C@@H](C)O)oc1C(=O)N1CCc2[nH]cnc2[C@H]1c1nc2c(F)cccc2s1 [Example 1929, ((S)-4-(4-fluorobenzo[d]thiazol-2-yl)-6,7-dihydro-1H-imidazo[4,5-c]pyridin-5(4H)-yl)(2-((R)-1-hydroxyethyl)-4-methyloxazol-5-yl)methanone]"
5,1000 to 5000,"Cc1nc([C@@H](C)O)oc1C(=O)N1CCc2[nH]cnc2[C@@H]1c1nc2c(F)cccc2s1 [Example 1930, ((R)-4-(4-fluorobenzo[d]thiazol-2-yl)-6,7-dihydro-1H-imidazo[4,5-c]pyridin-5(4H)-yl)(2-((R)-1-hydroxyethyl)-4-methyloxazol-5-yl)methanone]"
6,500 to 1000,CC(C)(C)n1ncc(C(=O)N2CCc3[nH]cnc3[C@H]2c2nc3c(F)cccc3s2)c1Cl [Example 1931]
7,1000 to 5000,"CC(C)(C)n1ncc(C(=O)N2CCc3[nH]cnc3[C@@H]2c2nc3c(F)cccc3s2)c1Cl [Example 1932, (R)-(1-(tert-butyl)-5-chloro-1H-pyrazol-4-yl)(4-(4-fluorobenzo[d]thiazol-2-yl)-6,7-dihydro-1H-imidazo[4,5-c]pyridin-5(4H)-yl)methanone]"
8,1000 to 5000,"Cc1c(C(=O)N2CCc3[nH]cnc3[C@H]2c2nc3c(F)cccc3s2)cnn1-c1ccccn1 [Example 1933, (S)-(4-(4-fluorobenzo[d]thiazol-2-yl)-6,7-dihydro-1H-imidazo[4,5-c]pyridin-5(4H)-yl)(5-methyl-1-(pyridin-2-yl)-1H-pyrazol-4-yl)methanone]"
9,> 5000,"Cc1c(C(=O)N2CCc3[nH]cnc3[C@@H]2c2nc3c(F)cccc3s2)cnn1-c1ccccn1 [Example 1934, (R)-(4-(4-fluorobenzo[d]thiazol-2-yl)-6,7-dihydro-1H-imidazo[4,5-c]pyridin-5(4H)-yl)(5-methyl-1-(pyridin-2-yl)-1H-pyrazol-4-yl)methanone]"
